Where two headings read alike, the source gives them in different places.
Assays:
Type in all cases: cell-based
GluA2/3 = molecular target: T1, GluA2/3 (Homo sapiens, UniProt P42262+P42263); assay: Whole-cell patch-clamp recordings of heteromeric GluA2/3 AMPAR in transfected HEK293T cells; details: for Amplitude (glutamate plus TC compound): 10 mM glutamate + TC compound (12 µM optimal concentration), HEK293T, -60 mV, pH 7.4, 22 °C, mean ± SEM; for Amplitude (glutamate plus TC compound) / Amplitude, applying glutamate alone after TC compound: n = 10; for Amplitude, applying glutamate alone after TC compound: 10 mM glutamate alone after 20 s wash following the TC compound; for A/AI: ratio of current with glutamate alone (A) to inhibited current after TC compound (AI); for t deact: weighted tau of deactivation, 10 mM glutamate for 1 ms, glutamate alone 2.6±0.3; for t deact / t des: with TC compound; for t des: weighted tau of desensitization, 10 mM glutamate 500 ms, glutamate alone 2.7±0.2
T1 construct: expressed in transfected cells; host or cells: HEK293T
T1 sequence (P42262 25-883 isoform P42262-2 limits assumed): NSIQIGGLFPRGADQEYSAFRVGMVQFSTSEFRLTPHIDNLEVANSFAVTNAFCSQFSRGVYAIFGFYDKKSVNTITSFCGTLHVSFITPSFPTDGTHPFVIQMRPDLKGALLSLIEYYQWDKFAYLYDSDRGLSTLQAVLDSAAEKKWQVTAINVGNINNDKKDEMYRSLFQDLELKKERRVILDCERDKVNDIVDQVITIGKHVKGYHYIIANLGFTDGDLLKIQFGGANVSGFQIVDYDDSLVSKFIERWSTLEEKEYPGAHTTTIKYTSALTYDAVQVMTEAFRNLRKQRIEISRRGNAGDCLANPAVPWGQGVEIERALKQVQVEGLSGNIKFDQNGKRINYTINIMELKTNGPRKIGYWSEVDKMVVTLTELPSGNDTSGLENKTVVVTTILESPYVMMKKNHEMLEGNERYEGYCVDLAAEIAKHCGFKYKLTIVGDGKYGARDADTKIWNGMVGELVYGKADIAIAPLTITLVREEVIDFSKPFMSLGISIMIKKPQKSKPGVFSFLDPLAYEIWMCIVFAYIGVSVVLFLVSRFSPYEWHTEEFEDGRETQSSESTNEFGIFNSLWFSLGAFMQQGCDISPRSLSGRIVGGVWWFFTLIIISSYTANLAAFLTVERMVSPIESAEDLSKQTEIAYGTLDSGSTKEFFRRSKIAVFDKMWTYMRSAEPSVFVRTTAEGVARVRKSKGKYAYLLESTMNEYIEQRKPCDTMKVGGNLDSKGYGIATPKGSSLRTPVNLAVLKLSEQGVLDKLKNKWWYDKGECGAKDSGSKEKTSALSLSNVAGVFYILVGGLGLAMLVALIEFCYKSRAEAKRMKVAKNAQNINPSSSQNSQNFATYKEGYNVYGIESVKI
T1 sequence (P42263 29-894 isoform P42263-2 limits assumed): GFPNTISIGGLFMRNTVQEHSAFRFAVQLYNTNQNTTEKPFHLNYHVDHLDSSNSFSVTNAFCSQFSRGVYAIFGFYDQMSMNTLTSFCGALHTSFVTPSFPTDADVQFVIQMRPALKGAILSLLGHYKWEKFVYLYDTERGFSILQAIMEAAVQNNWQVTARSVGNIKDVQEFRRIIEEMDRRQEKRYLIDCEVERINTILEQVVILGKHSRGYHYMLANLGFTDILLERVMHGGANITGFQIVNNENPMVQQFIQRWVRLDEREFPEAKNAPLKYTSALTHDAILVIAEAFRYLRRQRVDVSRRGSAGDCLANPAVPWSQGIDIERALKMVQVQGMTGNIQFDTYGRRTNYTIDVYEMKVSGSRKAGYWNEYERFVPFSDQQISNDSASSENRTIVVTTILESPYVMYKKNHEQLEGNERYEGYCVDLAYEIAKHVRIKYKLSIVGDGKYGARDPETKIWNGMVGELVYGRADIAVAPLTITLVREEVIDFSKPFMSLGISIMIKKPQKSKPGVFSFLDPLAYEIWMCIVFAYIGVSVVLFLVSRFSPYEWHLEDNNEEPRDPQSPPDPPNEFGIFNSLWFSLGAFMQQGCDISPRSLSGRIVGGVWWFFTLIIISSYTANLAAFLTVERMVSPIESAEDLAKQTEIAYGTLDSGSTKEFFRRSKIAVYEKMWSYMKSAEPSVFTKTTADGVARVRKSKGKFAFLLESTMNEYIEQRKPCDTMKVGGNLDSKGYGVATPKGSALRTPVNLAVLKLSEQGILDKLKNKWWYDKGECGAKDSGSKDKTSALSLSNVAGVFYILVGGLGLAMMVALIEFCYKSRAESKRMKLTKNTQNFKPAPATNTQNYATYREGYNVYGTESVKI
Experimental: (§1) The effect of five TC compounds on whole-cell currents of four AMPAR subunits (GluA1, GluA1/2, GluA2, and GluA2/3) was investigated using transfected HEK293T cells. Each compound was applied separately to each subunit, with experiments conducted on 8–10 cells per condition to ensure reproducibility. […] At a glutamate concentration of 10 mM and a 500 ms protocol, approximately 95% of AMPAR channels were open. The A/AI ratio was calculated to compare the results, where A represents normalized current readings and AI indicates the inhibited current following TC compound exposure. […] Following closely, TC-1 inhibited the tested subunits by 5-fold.
(§2) The IC50 values were examined using GraphPad Prism software 9.5.0.730 (x64) (Table S6), which confirmed these findings. The IC50 values of TC substances were calculated by standardizing the peak current amplitudes using data obtained from 8–10 cells. Following a 500 ms exposure to the compounds, the cells were rinsed with glutamate for 20 s. Next, a solution containing just glutamate at a concentration of 10 mM was administered, and the resulting immediate induced electrical current was measured and documented (Figure 3).
(§3) In addition, an evaluation was conducted on the deactivation rates (τw deact) of all the examined chemicals to investigate their impact on the kinetics of deactivation. The chemicals were assessed for their effect on the deactivation kinetics of AMPAR subunits by briefly administering 10 mM glutamate for 1 ms to begin currents. This experimental setup allowed for the observation of τw deact under controlled conditions. […] TC-5 induced an approximately 2-fold increase in τw deact across all four tested subunits. […] These findings highlight the differential impact of TC compounds on deactivation kinetics across AMPAR subunits, shedding light on their potential neuroprotective mechanisms.
(§4) The flip isoform was uniformly employed across all AMPAR subunits in this study. These subunits were subcloned into the pRK vector and expressed in Human Embryonic kidney cells sourced (Sigma, München, Germany). HEK293T cells were grown in Dulbecco Modified Eagle Medium (DMEM) (Sigma, München, Germany) containing 10% FBS (fetal bovine serum), 0.1 mg/mL streptomycin, and 1 mM sodium pyruvate (Biological Industries; Beit-Haemek, Israel). HEK293T cells were incubated at 37 °C and 5% CO2 was supplemented to the medium. It was subcultured twice a week until cells reached pass #20. The transfection reagent used was either jetPRIME (Polyplus: New York, NY, USA) or Lipofectamine 2000 (Invitrogen; San Diego, CA, USA). Cells were kept for 36 h. after transfection in 12-well plates. Then, they were replated on coverslips coated with Laminin (1 mg/mL; Sigma, Germany) for electrophysiology recordings. Cells were then seeded in Petri dishes in DMEM supplemented with 10% fetal calf serum and antibiotics and maintained in a humidified incubator at 37 °C and 5% CO2. Highly fluorescent cells were identified and selected for recording post-transfection.
(§5) HEK293T cells were recorded for 36–48 h, at a temperature of 22 °C, with a membrane potential of −60 mV. HEK293T cells were recorded 36–48 h after transfection using IPA (Integrated Patch Amplifier) via the […], at a temperature of 22 °C, with a membrane potential of −60 mV. SutterPatch Software v. 1.1.1 (Sutter Instruments, Novato, CA, USA) was used to digitize membrane currents for a short period. The sampling frequency was set to 10 kHz, and the low-pass filter was set to 2 kHz. Borosilicate glass was used to fabricate the patch electrodes with a resistance of 2–4 MΩ. The extracellular solution contained the following (values are in mM): 150 NaCl, 2.8 KCl, 0.5 MgCl2, 2 CaCl2, and 10 HEPES, adjusted to pH 7.4 with NaOH. The pipette solution contained the following (values are in mM): 110 CsF, 30 CsCl, 4 NaCl, 0.5 CaCl2, 10 […], and 10 HEPES, adjusted to pH 7.2 with CsOH. […]

[1] = tested on: AMPAR subunits (GluA1, GluA1/2, GluA2, and GluA2/3); assay: Whole-cell patch-clamp recordings, statements over all tested AMPAR subunits; details: for reduction in τw des: across all examined subunits; for increase in τw deact / decrease in AMPAR subunit activity (inhibition of the whole-cell current): all tested subunits; for increase in τw deact: 10 mM glutamate for 1 ms; for decrease in AMPAR subunit activity (inhibition of the whole-cell current): 10 mM glutamate, 500 ms protocol
Experimental: as §1
A thorough investigation was performed to assess the neuroprotective potential of the TC compounds. The influence of the five TC compounds on the desensitization traces is seen in Figure 4, namely in panels b, d, f, and h. TC-2 caused a substantial reduction in τw des in all receptor subunits, with decreases ranging from 2 to 3 times.
as §3, §4
as §5, with “CsOH. Using double barrel glass (theta tube), glutamate and the solutions of choice were rapidly administered, and the theta tube was mounted on a high-speed piezo solution switcher (Automate Scientific, Berkeley, CA, USA).” for “CsOH.”

GluA2 = molecular target: T2, GluA2 (Homo sapiens, UniProt P42262); assay: Whole-cell patch-clamp recordings of homomeric GluA2 AMPAR in transfected HEK293T cells; details: for Amplitude (glutamate plus TC compound): 10 mM glutamate + TC compound (12 µM optimal concentration), HEK293T, -60 mV, pH 7.4, 22 °C, mean ± SEM; for Amplitude (glutamate plus TC compound) / Amplitude, applying glutamate alone after TC compound: n = 10; for Amplitude, applying glutamate alone after TC compound: 10 mM glutamate alone after 20 s wash following the TC compound; for A/AI: ratio of current with glutamate alone (A) to inhibited current after TC compound (AI); for t deact: weighted tau of deactivation, 10 mM glutamate for 1 ms, glutamate alone 2.3±0.1; for t deact / t des: with TC compound; for t des: weighted tau of desensitization, 10 mM glutamate 500 ms, glutamate alone 2.6±0.1
T2 construct: expressed in transfected cells; host or cells: HEK293T
T2 sequence (P42262 25-883 isoform P42262-2 limits assumed, species assumed): as the sequence (P42262 25-883 isoform P42262-2 limits assumed) above
Experimental: as §1, §2, §3, §4, §5

GluA1 = molecular target: T3, GluA1 (Homo sapiens, UniProt P42261); assay: Whole-cell patch-clamp recordings of homomeric GluA1 AMPAR in transfected HEK293T cells; details: for Amplitude (glutamate plus TC compound) / Amplitude, applying glutamate alone after TC compound / IC50 / A/AI / t deact / t des: GluA1; for Amplitude (glutamate plus TC compound): 10 mM glutamate + TC compound (12 µM optimal concentration), HEK293T, -60 mV, pH 7.4, 22 °C, mean ± SEM; for Amplitude (glutamate plus TC compound) / Amplitude, applying glutamate alone after TC compound: n = 10; for Amplitude, applying glutamate alone after TC compound: 10 mM glutamate alone after 20 s wash following the TC compound; for A/AI: ratio of current with glutamate alone (A) to inhibited current after TC compound (AI); for t deact: weighted tau of deactivation, 10 mM glutamate for 1 ms, glutamate alone 2.1±0.1; for t deact / t des: with TC compound; for t des: weighted tau of desensitization, 10 mM glutamate 500 ms, glutamate alone 2.5±0.1; for influence on τw des: GluA1 subunit
T3 construct: expressed in transfected cells; host or cells: HEK293T
T3 sequence (P42261 19-906 isoform P42261-2 limits assumed, species assumed): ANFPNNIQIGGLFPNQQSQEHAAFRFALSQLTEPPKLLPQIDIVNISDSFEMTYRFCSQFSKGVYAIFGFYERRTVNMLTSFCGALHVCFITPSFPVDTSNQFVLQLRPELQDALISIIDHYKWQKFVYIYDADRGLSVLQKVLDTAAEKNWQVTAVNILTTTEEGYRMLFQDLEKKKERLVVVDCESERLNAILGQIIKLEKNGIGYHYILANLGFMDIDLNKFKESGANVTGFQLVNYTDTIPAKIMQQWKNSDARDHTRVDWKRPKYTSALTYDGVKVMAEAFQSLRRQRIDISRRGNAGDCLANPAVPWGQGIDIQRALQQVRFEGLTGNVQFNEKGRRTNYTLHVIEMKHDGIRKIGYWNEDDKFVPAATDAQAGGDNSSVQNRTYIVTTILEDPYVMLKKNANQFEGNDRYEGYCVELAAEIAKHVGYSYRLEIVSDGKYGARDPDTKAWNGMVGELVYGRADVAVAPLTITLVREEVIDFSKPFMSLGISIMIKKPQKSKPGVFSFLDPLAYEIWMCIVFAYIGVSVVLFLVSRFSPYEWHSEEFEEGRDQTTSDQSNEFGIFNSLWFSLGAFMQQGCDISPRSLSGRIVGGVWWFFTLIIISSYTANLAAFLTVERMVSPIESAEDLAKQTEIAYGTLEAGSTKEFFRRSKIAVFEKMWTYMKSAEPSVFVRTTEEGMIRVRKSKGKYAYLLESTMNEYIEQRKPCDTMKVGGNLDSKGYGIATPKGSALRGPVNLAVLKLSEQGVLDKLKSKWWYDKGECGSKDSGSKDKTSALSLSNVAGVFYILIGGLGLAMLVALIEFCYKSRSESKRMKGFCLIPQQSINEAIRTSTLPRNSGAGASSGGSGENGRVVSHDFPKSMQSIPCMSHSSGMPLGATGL
Experimental: as §1, §2, §3, §4, §5

[2] = Table S6, peak current amplitudes, 8-10 cells, GraphPad Prism fit, read-out: IC50
[3] = Table S6, read-out: Log IC50 (converted)

COc1ccc(-c2nc(C(=O)Nc3ccc(OC)c(OC)c3)cs2)cc1 [TC-1]
Amplitude (glutamate plus TC compound) (GluA2/3): 102±13 pA
Amplitude, applying glutamate alone after TC compound (GluA2/3): 491±61 pA
IC50 (GluA2/3; [2]): 3.38 µM
IC50 (GluA2/3; [3]): 3.39 µM
A/AI (GluA2/3): 4.95±0.19
t deact (GluA2/3): 5.6 ± 0.4 ms
t des (GluA2/3): 1.2 ± 0.3 ms
reduction in τw des [1]: roughly twofold
increase in τw deact [1]: around 2 fold
decrease in AMPAR subunit activity (inhibition of the whole-cell current) [1]: 5 fold
Amplitude (glutamate plus TC compound) (GluA2): 233±20 pA
Amplitude, applying glutamate alone after TC compound (GluA2): 1137±97 pA
IC50 (GluA2; [3]): 3.31 µM
A/AI (GluA2): 5.03±0.04
IC50 (GluA2; read-out: IC50): 3.3 µM
t deact (GluA2): 5.9 ± 0.2 ms
t des (GluA2): 1.1 ± 0.1 ms
Amplitude (glutamate plus TC compound) (GluA1): 177±20 pA
Amplitude, applying glutamate alone after TC compound (GluA1): 848±82 pA
IC50 (GluA1; [2]): 3.42 µM
IC50 (GluA1; [3]): 3.39 µM
A/AI (GluA1): 4.91±0.1
t deact (GluA1): 5.3 ± 0.4 ms
t des (GluA1): 1.3 ± 0.1 ms

COc1ccc(-c2nc(C(=O)Nc3ccccc3)cs2)cc1 [TC-3]
Amplitude (glutamate plus TC compound) (GluA2/3): 159±25 pA
Amplitude, applying glutamate alone after TC compound (GluA2/3): 456±76 pA
IC50 (GluA2/3; [2]): 5.53 µM
IC50 (GluA2/3; [3]): 5.5 µM
A/AI (GluA2/3): 3.06±0.07
t deact (GluA2/3): 3.4 ± 0.4 ms
t des (GluA2/3): 1.8 ± 0.2 ms
reduction in τw des [1]: little effect
increase in τw deact [1]: weaker effects
decrease in AMPAR subunit activity (inhibition of the whole-cell current) [1]: ~3 fold
Amplitude (glutamate plus TC compound) (GluA2): 363±37 pA
Amplitude, applying glutamate alone after TC compound (GluA2): 1078±112 pA
IC50 (GluA2; [2]): 5.5 µM
IC50 (GluA2; [3]): 5.5 µM
A/AI (GluA2): 3.17±0.02
t deact (GluA2): 3.5 ± 0.3 ms
t des (GluA2): 1.7 ± 0.1 ms
Amplitude (glutamate plus TC compound) (GluA1): 287±38 pA
Amplitude, applying glutamate alone after TC compound (GluA1): 799±95 pA
IC50 (GluA1; [2]): 5.73 µM
IC50 (GluA1; [3]): 5.75 µM
A/AI (GluA1): 2.97±0.03
t deact (GluA1): 3.0 ± 0.2 ms
t des (GluA1): 2.0 ± 0.1 ms
influence on τw des (GluA1): negligible

COc1ccc(-c2nc(C(=O)Nc3ccc(C(C)(C)C)cc3)cs2)cc1 [TC-4]
Amplitude (glutamate plus TC compound) (GluA2/3): 183±36 pA
Amplitude, applying glutamate alone after TC compound (GluA2/3): 460±95 pA
IC50 (GluA2/3; [2]): 5.64 µM
IC50 (GluA2/3; [3]): 5.62 µM
A/AI (GluA2/3): 2.59±0.05
t deact (GluA2/3): 3.3 ± 0.3 ms
t des (GluA2/3): 1.9 ± 0.2 ms
reduction in τw des [1]: little effect
increase in τw deact [1]: weaker effects
decrease in AMPAR subunit activity (inhibition of the whole-cell current) [1]: ~2.5 fold
Amplitude (glutamate plus TC compound) (GluA2): 393±43 pA
Amplitude, applying glutamate alone after TC compound (GluA2): 1110±101 pA
IC50 (GluA2; [2]): 5.6 µM
IC50 (GluA2; [3]): 5.62 µM
A/AI (GluA2): 2.91±0.07
t deact (GluA2): 3.4 ± 0.2 ms
t des (GluA2): 1.8 ± 0.1 ms
Amplitude (glutamate plus TC compound) (GluA1): 331±50 pA
Amplitude, applying glutamate alone after TC compound (GluA1): 816±114 pA
IC50 (GluA1; [2]): 5.88 µM
IC50 (GluA1; [3]): 5.89 µM
A/AI (GluA1): 2.53±0.02
t deact (GluA1): 2.9 ± 0.1 ms
t des (GluA1): 2.1 ± 0.1 ms
influence on τw des (GluA1): negligible
